Laboratory results reported in patent US20240360134A1, “PYRAZOLOPYRIMIDINES AND THEIR USES AS PDGFR INHIBITORS” (priority 2021, published 2024).

Columns and labels:
[1] = target: PDGFRβ (Rattus norvegicus (Rat), UniProt Q05030); test: PDGFRβ Cellular Assay (PDGFRb P-Y751 HTRF, PDGF-BB stimulated A10 cells); format: cell-based; details: A10 cells, 3 hours compound, 15 ng/mL PDGFbb for 10 minutes; read-out: PDGFR Cellular IC50
Summary of the method: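 Rat A10 cells plated overnight were treated with compound for 3 h, stimulated with rat PDGF-BB (working stock 100 ng/mL in 10% FBS medium) for 10 min, then lysed.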

[2] = target: Tb-labeled inactive PDGFRβ (Homo sapiens (Human), UniProt P09619); test: biochemical; format: binding; details: read-out: PDGFR Lantha IC50
[3] = target: VEGFR2, unphosphorylated (Homo sapiens (Human), UniProt P35968); test: VEGFR ADP GLO assay; format: biochemical; details: 5 nM VEGFR2, 1.2 mM ATP, 1 mg/mL Srctide, 180 min
Summary of the method: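 Luminescent ADP detection after a 180-min room-temperature reaction of srctide plus ATP (2 mg/mL and 2.4 mM in 2× mix) in pH 7.5 HEPES buffer with DTT, Pluronic and ovalbumin. Compounds, 11 points from 10 µM, first pre-incubated 30 min with enzyme (2× mix 10 nM). IC50s fitted after scaling between DMSO and 1 µM TAK-593 controls.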

[4] = target: His6-TEV-PDGFRβ (557-1016) (Homo sapiens (Human), UniProt P09619); test: PDGFRβ HTRF Assay; format: biochemical; details: 800 μM ATP, 0.5 μM TK-substrate biotin peptide, 30 min pre-incubation, 3 hours reaction; read-out: PDGFR HTRF IC50
[5] = in vivo; cited from earlier work

Sequence of VEGFR2, unphosphorylated (P35968 whole entry, looked up): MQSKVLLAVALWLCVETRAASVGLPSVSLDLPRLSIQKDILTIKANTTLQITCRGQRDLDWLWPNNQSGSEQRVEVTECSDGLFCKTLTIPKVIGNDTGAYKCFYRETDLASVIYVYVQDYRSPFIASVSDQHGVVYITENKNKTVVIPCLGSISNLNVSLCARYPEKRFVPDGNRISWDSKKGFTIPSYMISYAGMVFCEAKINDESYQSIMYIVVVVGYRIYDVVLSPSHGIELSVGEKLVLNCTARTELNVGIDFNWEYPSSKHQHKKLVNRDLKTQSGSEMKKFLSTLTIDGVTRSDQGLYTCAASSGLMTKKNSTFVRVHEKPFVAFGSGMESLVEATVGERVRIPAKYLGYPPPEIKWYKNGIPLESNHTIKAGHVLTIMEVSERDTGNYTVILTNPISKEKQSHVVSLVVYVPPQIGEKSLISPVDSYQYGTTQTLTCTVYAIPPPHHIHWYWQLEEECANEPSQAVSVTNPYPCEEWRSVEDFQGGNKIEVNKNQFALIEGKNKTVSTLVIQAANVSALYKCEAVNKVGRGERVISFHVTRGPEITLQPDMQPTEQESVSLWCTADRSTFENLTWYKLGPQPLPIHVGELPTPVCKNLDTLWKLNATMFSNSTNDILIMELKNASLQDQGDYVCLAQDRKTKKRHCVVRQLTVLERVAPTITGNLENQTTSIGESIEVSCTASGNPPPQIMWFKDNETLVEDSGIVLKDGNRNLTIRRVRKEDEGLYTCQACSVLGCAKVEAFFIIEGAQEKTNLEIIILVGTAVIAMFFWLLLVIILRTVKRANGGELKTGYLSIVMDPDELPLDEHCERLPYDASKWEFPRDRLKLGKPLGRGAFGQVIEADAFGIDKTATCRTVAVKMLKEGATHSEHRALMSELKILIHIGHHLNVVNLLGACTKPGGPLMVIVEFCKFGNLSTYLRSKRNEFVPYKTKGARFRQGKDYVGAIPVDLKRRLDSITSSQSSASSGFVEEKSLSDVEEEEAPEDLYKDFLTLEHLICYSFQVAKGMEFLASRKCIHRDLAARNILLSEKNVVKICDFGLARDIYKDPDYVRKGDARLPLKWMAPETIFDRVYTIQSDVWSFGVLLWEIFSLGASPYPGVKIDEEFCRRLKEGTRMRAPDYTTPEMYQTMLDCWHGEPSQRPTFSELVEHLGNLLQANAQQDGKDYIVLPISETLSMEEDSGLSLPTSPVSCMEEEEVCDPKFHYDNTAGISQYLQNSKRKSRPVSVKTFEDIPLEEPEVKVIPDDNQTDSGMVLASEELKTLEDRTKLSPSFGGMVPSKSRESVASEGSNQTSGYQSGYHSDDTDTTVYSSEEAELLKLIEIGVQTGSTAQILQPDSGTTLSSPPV
Sequence of His6-TEV-PDGFRβ (557-1016) (P09619 whole entry, looked up): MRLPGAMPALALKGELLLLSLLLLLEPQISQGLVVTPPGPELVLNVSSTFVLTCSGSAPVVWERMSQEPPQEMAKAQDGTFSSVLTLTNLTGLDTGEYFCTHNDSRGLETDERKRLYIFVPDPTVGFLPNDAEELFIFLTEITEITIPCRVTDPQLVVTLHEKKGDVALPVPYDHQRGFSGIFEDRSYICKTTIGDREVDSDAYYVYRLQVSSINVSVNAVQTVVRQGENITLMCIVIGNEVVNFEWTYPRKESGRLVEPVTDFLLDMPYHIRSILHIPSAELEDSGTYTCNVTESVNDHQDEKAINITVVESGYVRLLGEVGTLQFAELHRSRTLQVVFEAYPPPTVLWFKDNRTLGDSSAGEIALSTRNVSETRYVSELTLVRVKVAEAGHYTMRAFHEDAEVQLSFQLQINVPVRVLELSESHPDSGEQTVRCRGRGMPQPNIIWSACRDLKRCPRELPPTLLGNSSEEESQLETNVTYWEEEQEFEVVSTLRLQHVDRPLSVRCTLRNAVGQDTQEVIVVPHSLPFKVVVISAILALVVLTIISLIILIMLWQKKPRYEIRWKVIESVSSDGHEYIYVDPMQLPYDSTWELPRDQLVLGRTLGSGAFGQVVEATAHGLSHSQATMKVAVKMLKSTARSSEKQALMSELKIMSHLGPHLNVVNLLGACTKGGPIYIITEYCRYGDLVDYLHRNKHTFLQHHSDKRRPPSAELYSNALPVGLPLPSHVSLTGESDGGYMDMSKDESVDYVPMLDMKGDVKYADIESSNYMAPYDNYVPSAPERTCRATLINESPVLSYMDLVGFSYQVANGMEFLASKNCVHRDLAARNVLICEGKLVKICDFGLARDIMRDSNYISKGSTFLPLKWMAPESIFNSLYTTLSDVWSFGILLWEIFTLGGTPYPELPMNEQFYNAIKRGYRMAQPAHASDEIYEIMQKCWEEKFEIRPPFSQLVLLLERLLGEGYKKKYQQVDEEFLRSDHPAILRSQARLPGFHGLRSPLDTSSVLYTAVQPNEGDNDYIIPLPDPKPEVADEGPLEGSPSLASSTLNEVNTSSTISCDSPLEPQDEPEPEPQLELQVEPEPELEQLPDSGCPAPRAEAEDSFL
Sequence of Tb-labeled inactive PDGFRβ (P09619 whole entry, looked up): as above
Sequence of PDGFRβ (Q05030 whole entry, looked up): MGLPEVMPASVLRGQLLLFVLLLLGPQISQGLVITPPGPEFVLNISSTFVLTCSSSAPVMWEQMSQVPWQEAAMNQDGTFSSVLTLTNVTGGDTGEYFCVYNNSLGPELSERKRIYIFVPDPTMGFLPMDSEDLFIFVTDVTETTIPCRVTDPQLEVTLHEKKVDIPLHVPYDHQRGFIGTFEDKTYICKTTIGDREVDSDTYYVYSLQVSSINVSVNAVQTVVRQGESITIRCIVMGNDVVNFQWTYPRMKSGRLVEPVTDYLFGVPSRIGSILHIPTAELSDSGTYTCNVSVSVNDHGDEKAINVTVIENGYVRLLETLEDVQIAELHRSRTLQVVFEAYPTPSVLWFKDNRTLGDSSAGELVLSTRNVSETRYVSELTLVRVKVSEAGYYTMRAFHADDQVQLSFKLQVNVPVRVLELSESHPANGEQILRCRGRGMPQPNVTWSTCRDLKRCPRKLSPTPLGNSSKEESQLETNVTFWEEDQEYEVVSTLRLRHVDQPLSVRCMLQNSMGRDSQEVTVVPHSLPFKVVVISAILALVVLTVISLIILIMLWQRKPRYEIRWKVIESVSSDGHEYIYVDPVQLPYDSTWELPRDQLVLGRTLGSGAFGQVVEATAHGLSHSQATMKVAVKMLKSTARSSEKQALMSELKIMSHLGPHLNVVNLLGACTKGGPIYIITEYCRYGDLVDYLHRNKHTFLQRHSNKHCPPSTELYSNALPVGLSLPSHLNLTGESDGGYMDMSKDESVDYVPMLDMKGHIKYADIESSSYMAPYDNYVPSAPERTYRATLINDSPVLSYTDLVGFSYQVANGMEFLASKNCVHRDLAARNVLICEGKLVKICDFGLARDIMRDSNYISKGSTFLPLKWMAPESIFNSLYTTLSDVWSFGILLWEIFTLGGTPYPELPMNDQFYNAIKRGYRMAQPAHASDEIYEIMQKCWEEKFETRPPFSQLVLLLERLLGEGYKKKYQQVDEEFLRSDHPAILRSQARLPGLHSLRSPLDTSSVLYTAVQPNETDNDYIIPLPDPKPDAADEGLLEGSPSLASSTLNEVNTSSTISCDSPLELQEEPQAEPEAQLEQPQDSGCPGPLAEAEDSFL

| SMILES | IC50 [1] [nM] | IC50 [2] [nM] | IC50 [3] [nM] | IC50 [4] [nM] | cardiotoxicity and development of pulmonary hypertension [5] |
| --- | --- | --- | --- | --- | --- |
| Cc1nn(C)cc1Nc1ncc2c(Nc3cc(C(=O)NCCN4CCCC4(C)C)cnc3C)nn(C)c2n1 [Example 161, 5-((6-((1,3-dimethyl-1H-pyrazol-4-yl)amino)-1-methyl-1H-pyrazolo[3,4-d]pyrimidin-3-yl)amino)-N-(2-(2,2-dimethylpyrrolidin-1-yl)ethyl)-6-methylnicotinamide] | 24.8 | 13.3 | > 7500 | 1.65 |  |
| Cc1ncc(C(=O)NCCN2CCCC2(C)C)cc1Nc1nn(C)c2nc(Nc3cnn4c3OCCC4)ncc12 [Example 163, 5-((6-((6,7-dihydro-5H-pyrazolo[5,1-b][1,3]oxazin-3-yl)amino)-1-methyl-1H-pyrazolo[3,4-d]pyrimidin-3-yl)amino)-N-(2-(2,2-dimethylpyrrolidin-1-yl)ethyl)-6-methylnicotinamide] | > 2000 | 805 | > 7500 | 86.4 |  |
| Cc1nc(Nc2ncc(C(=O)Nc3c(C)cccc3Cl)s2)cc(N2CCN(CCO)CC2)n1 [dasatinib] |  |  |  |  | linked to cardiotoxicity and the development of pulmonary hypertension |
